# Test results as given in patent US5756531A, “Iminoxy derivatives of indole and indene compounds as inhibitors of prostaglandin biosynthesis” (Abbott Laboratories, priority 1996, dated 1998).
# What was measured:
# [1] = system: PGHS-2; conditions: in words; cited from earlier work
# [2] = system: PGHS-1; conditions: in words; cited from earlier work
# [3] = target: T1, recombinant human PGHS-2 (prostaglandin hydroperoxidase -2, cyclooxygenase-2) (Homo sapiens, UniProt P35354); assay: Recombinant Human PGHS-2 enzyme assay (PGE2 production by EIA); assay type: biochemical; conditions: 60 min preincubation; 10 μM arachidonic acid
# T1 construct: made in house; host or cells: baculovirus/Sf9 insect cells (microsomes)
# T1 sequence (P35354 18-604): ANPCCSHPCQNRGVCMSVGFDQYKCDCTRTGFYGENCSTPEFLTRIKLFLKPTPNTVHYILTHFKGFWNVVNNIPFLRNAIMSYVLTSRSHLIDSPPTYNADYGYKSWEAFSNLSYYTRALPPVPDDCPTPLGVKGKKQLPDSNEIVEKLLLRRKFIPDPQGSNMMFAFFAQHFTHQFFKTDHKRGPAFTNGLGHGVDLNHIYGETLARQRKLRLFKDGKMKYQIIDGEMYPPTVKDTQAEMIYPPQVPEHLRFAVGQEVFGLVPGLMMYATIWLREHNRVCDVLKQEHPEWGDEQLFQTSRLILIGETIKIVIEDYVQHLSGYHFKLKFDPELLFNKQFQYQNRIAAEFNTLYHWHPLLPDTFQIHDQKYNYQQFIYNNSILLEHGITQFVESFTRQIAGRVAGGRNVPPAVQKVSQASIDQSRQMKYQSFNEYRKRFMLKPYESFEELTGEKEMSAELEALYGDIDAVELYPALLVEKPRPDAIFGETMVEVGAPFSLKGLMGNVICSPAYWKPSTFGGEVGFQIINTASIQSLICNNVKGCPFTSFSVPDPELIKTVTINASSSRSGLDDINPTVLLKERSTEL
# Experimental: 2. recombinant human prostaglandin hydroperoxidase -2 (cyclooxygenase-2)
# (§1) Compound dissolved in DMSO (3.3% v/v) was preincubated with microsomes from recombinant human PGHS-1 or PGHS-2 expressed in the baculovirus/Sf9 cell system (Gierse, J. K., Hauser, S. D., Creely, D. P., Koboldt, C., Rangwala, S., H., Isakson, P. C., and Seibert, K. Expression and selective inhibition of the constituitive and inducible forms of cyclooxygenase Biochem J. 1995, 305: 479.), together with the cofactors phenol (2 mM) and hematin (1 μM) for 60 minutes prior to the addition of 10 μM arachidonic acid. The reaction was allowed to run for 2.5 minutes at room temperature prior to quenching with HCl and neutralization with NaOH. PGE2 production in the presence and absence of the drug was determined by EIA analysis.
# (§2) EIA reagents for prostaglandin determination were purchased from Perseptive Diagnostics, Cambridge, Mass. PGE2 levels in lavage fluids were determined after the samples were dried under nitrogen and reconstituted with assay buffer. PGE2 levels in enzyme assays or cell culture media were measured against standards prepared in the same milieu. The immunoassays were conducted as recommended by the manufacturer. The EIA was conducted in 96 well microtiter plates (Nunc Roskilde, Denmark) and optical density measured using a microplate reader (Vmax, Molecular Devices Corp., Menlo Park, Calif.).
# [4] = target: T2, recombinant human PGHS-1 (prostaglandin hydroperoxidase -1, cyclooxygenase-1) (Homo sapiens, UniProt P23219); assay: Recombinant Human PGHS-1 enzyme assay (PGE2 production by EIA); assay type: biochemical; conditions: 60 min preincubation; 10 μM arachidonic acid
# T2 construct: made in house; host or cells: baculovirus/Sf9 insect cells (microsomes)
# Experimental: 1. recombinant human prostaglandin hydroperoxidase -1 (cyclooxygenase-1)
# as §1, §2
# T2 sequence (P23219 24-599): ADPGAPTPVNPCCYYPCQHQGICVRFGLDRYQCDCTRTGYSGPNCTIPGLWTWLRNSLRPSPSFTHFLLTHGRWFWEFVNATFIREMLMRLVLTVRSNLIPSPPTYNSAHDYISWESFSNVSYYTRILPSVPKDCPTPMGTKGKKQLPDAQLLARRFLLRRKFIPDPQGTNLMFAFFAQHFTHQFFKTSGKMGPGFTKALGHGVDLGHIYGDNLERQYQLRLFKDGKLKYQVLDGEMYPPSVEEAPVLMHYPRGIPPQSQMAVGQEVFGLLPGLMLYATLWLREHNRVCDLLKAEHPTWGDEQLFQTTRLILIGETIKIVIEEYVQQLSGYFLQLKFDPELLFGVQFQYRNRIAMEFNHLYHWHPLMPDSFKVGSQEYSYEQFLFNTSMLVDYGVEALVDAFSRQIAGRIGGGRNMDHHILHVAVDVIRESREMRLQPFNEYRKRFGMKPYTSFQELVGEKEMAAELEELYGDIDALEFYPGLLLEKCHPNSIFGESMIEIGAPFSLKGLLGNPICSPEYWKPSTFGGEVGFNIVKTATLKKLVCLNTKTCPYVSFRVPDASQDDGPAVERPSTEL
Structure (SMILES),inhibition of PGHS-2 [1],inhibition of PGHS-1 [2],IC50 [3] [µM],IC50 [4] [µM]
COc1ccc2cc([C@H](C)C(=O)O)ccc2c1 [naproxen],inhibit both isozymes,inhibit both isozymes,,
"COc1ccc2c(c1)c(CCON=C(C)/C=C/C(=O)O)c(C)n2C(=O)c1ccc(Cl)cc1 [Example 6, 4-oxopent-2-enoic acid-2-O-[2-(4-chlorobenzoyl-5-methoxy-2-methylindol-3-yl)ethyl] oxime]",,,0.07,52
"COc1ccc2c(c1)c(CC(=O)O)c(C)n2C(=O)c1ccc(Cl)cc1 [Indomethacin, indomethacin]",inhibit both PGHS-1 and PGHS-2,inhibit both PGHS-1 and PGHS-2,,
CC(C)Cc1ccc(C(C)C(=O)O)cc1 (stereo not drawn) [ibuprofen],inhibit both isozymes,inhibit both isozymes,,
"COc1ccc2c(c1)c(CCON=CC(O)CO)c(C)n2C(=O)c1ccc(Cl)cc1 (stereo not drawn) [Example 7, glyceraldehyde-O-[2-(1-(4-chlorobenzoyl)-5-methoxy-2-methylindol-3-yl)ethyl] oxime]",,,0.06,24
CC1=C(CC(=O)O)c2cc(F)ccc2/C1=C\c1ccc([S+](C)[O-])cc1 (stereo not drawn) [sulindac],inhibit both PGHS-1 and PGHS-2,inhibit both PGHS-1 and PGHS-2,,
